Test results from patent EP4623908A1, “USE OF (-)-EPIGALLOCATECHIN GALLATE COMPOUND” (CF Pharmtech, Inc., priority 2022, dated 2024).

How the values were obtained:
[1] = cited from earlier work
[2] = cited from earlier work; remark: listed apart in the source
[3] = system: Pulmonary Fibrosis Induced by Bleomycin in Rats; experiment: Bleomycin-induced pulmonary fibrosis model in rats (Example 5); format: in vivo, SD rats
Description: This study aims to compare the effects of different administration methods, including oral gavage of EGCG, tracheal nebulization of pirfenidone solution, and tracheal nebulization of EGCG at different doses, on the collagen content in lung tissues and pathological observations of rats with bleomycin-induced pulmonary fibrosis. The therapeutic effect of inhaled EGCG on rat pulmonary fibrosis was evaluated.
The solvents for the EGCG nebulization solution, modeling agents, and their solvents are as described in Example 4. The positive control drug is pirfenidone (purity 99%, pharmaceutical grade), with the solvent components consisting of NaCl and citric acid, forming a clear liquid.
SPF-grade SD rats, 6-9 weeks old with a weight of 200-300g, totaling 88 rats, were randomly divided into the following groups: • Sham operation group (normal control) (8 rats) • Pulmonary fibrosis model control group (10 rats) • Oral gavage EGCG group 1 (10 rats) • Oral gavage EGCG group 2 (10 rats) • Tracheal Nebulization EGCG solution groups 1-4 (10 rats per group, total 40 rats) • Tracheal Nebulization pirfenidone solution group (10 rats)
On D1, the normal control group was administered solvent 2 (saline injection solution, 1 mL/kg) via tracheal nebulization, while all other groups were administered bleomycin (2.5 mg/kg, 1 mL/kg) via tracheal nebulization twice a day (morning and afternoon) to establish the model. On D8, the body weights of the animals were recorded. From D10 to D28, the normal control and pulmonary fibrosis model groups were treated with solvent 1 via tracheal nebulization, while the remaining groups were administered EGCG or pirfenidone once daily at the following doses and administration methods: • Oral gavage EGCG group 1 and 2: 30 mg/kg, 60 mg/kg • Tracheal Nebulization EGCG group 1-4: 0.05 mg/kg, 0.4 mg/kg, 0.8 mg/kg, 1.6 mg/kg • Tracheal Nebulization pirfenidone solution group: 0.9 mg/kg (reference dose from M.W. Surber et al., ATS POSTER, 2014)
On D29, all animals were euthanized for dissection. During the necropsy, the lungs, trachea, and bronchi were examined for abnormalities. Left lung tissue was preserved at below -60°C for hydroxyproline content detection, and right lung tissue was prepared for pathological sectioning. Hematoxylin and eosin (HE) staining and Masson staining were performed for pathological morphological observations and fibrosis evaluation.
All groups were compared to the model group using statistical analysis via Kruskal-Wallis test. The results are indicated as follows: • *P < 0.05: statistically significant difference • **P < 0.01: highly significant difference • ***P < 0.001: extremely significant difference • ****P < 0.0001: extremely highly significant difference

[4] = animal experiments; inhalation; cited from earlier work
[5] = nebulized 100 mg vs oral 801 mg

| Compound | diarrhea in clinical study participants ([1]; oral 150 mg twice daily (BID)) | plasma drug concentrations ([2]; inhalation) [ng/mL] | Cmax in epithelial lining fluid (ELF) relative to the Cmax of the oral dose (higher) [2, 5] [times] | systemic exposure relative to the oral dose (lower) [2, 5] | Hydroxyproline Content ([3]; rat lung tissue, positive control, Inh 0.9 mg/kg once daily D10 to D28, Mean ±SEM) [µg/µL] | hydroxyproline content in rat lungs, difference from the model group ([3]; tracheal nebulization of pirfenidone solution 0.9 mg/kg) | half-life in the lungs [4] | photosensitivity reactions in patients ([1]; oral 801 mg three times daily (TID)) |
| --- | --- | --- | --- | --- | --- | --- | --- | --- |
| COC(=O)c1ccc2c(c1)NC(=O)/C2=C(\Nc1ccc(N(C)C(=O)CN2CCN(C)CC2)cc1)c1ccccc1 [nintedanib] | up to 61.5% | – | – | – | – | – | – | – |
| Cc1ccc(=O)n(-c2ccccc2)c1 [pirfenidone] | – | 807 to 1370 | 35 | about 15 times | 0.587 ± 0.059 | not statistically significant | about 10 minutes | up to 51% |
